Measured values published in patent US20060241296A1, “Vanilloid receptor ligands and their use in treatments” (priority 2005, published 2006).

Row | SMILES | melting point
1 | O[C@@H]1Cc2cccc(Nc3cc(-c4ccc(C(F)(F)F)cc4)ncn3)c2C[C@H]1O (racemic) [Example 28, (±)-5-(6-(4-(Trifluoromethyl)phenyl)pyrimidin-4-ylamino)-1,2,3,4-tetrahydronaphthalene-2,3-trans-diol] | 286 to 289 °C
2 | O[C@@H]1Cc2c(cccc2Nc2cc(-c3ccc(C(F)(F)F)cc3)ncn2)C[C@@H]1O (racemic) [Example 30, (±)-5-(6-(4-(Trifluoromethyl)phenyl)pyrimidin-4-ylamino)-1,2,3,4-tetrahydronaphthalene-2,3-cis-diol] | 231 to 232 °C
3 | Nc1cc(C(F)(F)F)ccc1-c1cc(Nc2cccc3c2C[C@@H](O)[C@@H](O)C3)ncn1 (racemic) [Example 31, (±)-5-(6-(2-Amino-4-(trifluoromethyl)phenyl)pyrimidin-4-ylamino)-1,2,3,4-tetrahydronaphthalene-2,3-cis-diol] | 233 to 234 °C
4 | OC1CCc2cccc(Nc3cc(-c4ccc(C(F)(F)F)cc4)ncn3)c2C1 (centres unmarked) [Example 1, 8-(6-(4-(Trifluoromethyl)phenyl)pyrimidin-4-ylamino)-1,2,3,4-tetrahydro-naphthalen-2-ol] | 178 to 179 °C
5 | OC1CCc2c(Br)ccc(Nc3cc(-c4ccc(C(F)(F)F)cc4)ncn3)c2C1 (centres unmarked) [Example 37, 5-Bromo-8-(6-(4-(trifluoromethyl)phenyl)pyrimidin-4-ylamino)-1,2,3,4-tetrahydronaphthalen-2-ol] | 192 °C
